Measurements from patent publication US12715946B2, “Composition” (JOSHO GAKUEN EDUCATIONAL FOUNDATION, priority 2020, dated 2026).

Test system: Chinese hamster ovary cells (CHO cells)
Experiment: Evaluation of cellular uptake of FITC-labeled model drugs (flow cytometry, MFI)
Format: cell-based
Details: 5 μg/mL, 2 hours incubation, n=3
Protocol: Cellular uptake evaluation of the model drugs described above was conducted using Examples 1 to 3 (polymeric compounds of Manufacturing Examples 1 to 3) or Comparative Examples 1 to 2 (compounds of Manufacturing Examples 4 and 5). A suspension of Ham's F-12 medium (manufactured by Fujifilm Wako Chemical Corporation) containing Chinese hamster ovary cells (CHO cells, 2×10^5 cells/mL) was prepared and seeded at 500μL/well to each well of a 24-well plate. The cells were incubated in a CO2 gas incubator (37° C., 5% CO2) for 24 hours.
Then, the compositions of the Examples and Comparative Examples (Table 1-6) were prepared by mixing 250 μL/well of Ham's F-12 medium containing the above model drugs and 250 μL/well of Ham's F-12 medium containing the manufacturing examples.
Then, the supernatant was removed from each well of the pre-cultured 24-well plate using an aspirator and the cells were washed twice with 500 μL/well of phosphate-buffered saline. Then, the aforementioned compositions were gently added to the wells and incubated in a carbon dioxide incubator for 2 hours. The number of experiments was n=3.
After 2 hours, the supernatants of medium were removed, and the cells were washed twice with 500 μL/well of phosphate-buffered saline. Then, 100 μL/well of trypsin-EDTA solution (0.25% trypsin, 1 mmol/L EDTA solution, Life Technologies) was added, and cultured CHO cells were detached from 24-well plates.
Then, 400 μL/well of trypan blue solution (Fujifilm Wako Chemical Corporation) was added to suspend the cells, and the cells were collected in microtubes. The collected cell suspensions were passed through a cell strainer, and the mean fluorescence intensity (MFI) was measured by flow cytometry. The cells without the polymeric compound (only the model drug was added) were used as controls.
While only the model drug introduced into the cells emits fluorescence. MFI represents the arithmetic average of the fluorescence intensity per cell, and a larger value of MFI indicates a more efficient intracellular uptake of the model drug.

O=C([O-])CCCCCCCNC(=O)c1ccccc1O.[Na+] [Comparative Example 2, Sodium salcaprozate]
MFI ± S.D. (Model drug: FITC-CTB (Molecular weight 11,000)): 3.7 ± 0.1 | MFI ± S.D. (Model drug: FITC-INS (Molecular weight 5,800)): 19.7 ± 0.2 | MFI ± S.D. (Model drug: FITC-IgG (Molecular weight 150,000)): 3.2 ± 0.1 | MFI ± S.D. (Model drug: FITC-IgM (Molecular weight 900,000)): 3.1 ± 0.2 | MFI ± S.D. (Model drug: FITC-OVA (Molecular weight 45,000)): 3.6 ± 0.4 | MFI ± S.D. (Model drug: FITC-Tf (Molecular weight 77,000)): 6.7 ± 0.2
